Read-outs that look alike come from different tables or passages of the source.
Assays:
h5-HT2A = h5-HT2A (Homo sapiens, UniProt P28223); test: IP1 formation (Gαq-mediated signaling), h5-HT2A; format: cell-based; parameters: expressed in transfected cells; host or cells: HEK 293 cells (membrane preparation); conditions: for Emax: read-out: IP1 formation Emax h5-HT2A (95% CI)
5-HT2A receptor = 5-HT2A receptor activation bias factors (relative intrinsic activity, 5-HT reference); format: cell-based, human; conditions: 5-HT as reference agonist; positive = preference for numerator pathway
Method: The IC50 values from the radioligand binding assays were determined by nonlinear regression, using three independent concentration-response curves fitted to a one-site model. The Cheng-Prusoff equation was used to calculate Kᵢ values for the competing ligands. EC50 values were determined by applying nonlinear regression to concentration-response curves. Bias factors (β) were calculated based on the relative intrinsic activity approach. More detailed information can be found in the Supplementary information. Mean values for total number of HTR, change in body temperature from pre to post session (Δ°C), and total distance traveled (cm) for each drug dose were compared (p < 0.05) via Welch’s ANOVA with Dunnett’s T3 post test, comparing all doses to respective vehicle controls (0 mg/kg). Welch’s ANOVA with Dunnett’s T3 post test was also used to compare drug concentrations, but the data were compared to DOM in this case. Dose–response relationships for HTR and locomotor activities were plotted using bell-shaped curve fits, while temperature change data were plotted using four-parameter non-linear regression curve fits. The ascending phase of the HTR curve for each drug was used to determine ED50 potency values from four parameter non-linear regression fits. For combined DOM and DOAM administration, the plasma, brain tissue, and brain dialysate drug concentrations were compared using paired t-tests (p < 0.05).
Bias factors close to 0 imply no bias toward either tested signaling pathway. Positive values indicate a preference for pathway 1, and negative values indicate a preference for pathway 2, relative to the reference agonist 5-HT. […]
the β-arrestin 2 molecule in the NanoBiT system) were seeded at a density of 50,000 cells per well in poly - D-lysine-coated 96-well plates in medium containing 10% dialyzed FBS. The plate was then incubated at […]
The following day, the cells were washed twice with 150 µL HBSS, and 100 µL HBSS was subsequently added to each well. Thereafter, 25 µL of substrate (1 :20 diluted in buffer) was added, and […]
agonist solutions was added, and the signal was monitored for 2 h. Drug dilutions in HBSS were made from 10 mM stock solutions in DMSO , yielding concentration ranges from 10 µM to 10 pM. All concentrations were run in duplicate and included the appropriate solvent controls. Efficacy was normalized to 5 -HT […]
3.2.3 Arachidonic acid release
Arachidonic acid release was assessed as a marker for Gαi/o,12/13 mediated signaling.
NIH/3T3 cells stably expressing the 5 -HT2A receptor were seeded at a density of 75,000 cells per well in a poly-D-lysine-coated 48-well plate. The following day, the cells were labeled with 300 μL [ 3H]arachidonic […]
Thereafter, the cells were washed 3 times for
(10 mM) of test substances were prepared in DMSO. The final dilution series of test substances dissolved […]
Thereafter, the plate was put on ice, and 400 μL incubation supernatant per well was transferred int o scintillation vials containing scintillation fluid (Ultimagold, Perkin Elmer, Schwerzenbach, Switzerland). The remaining supernatant was removed, and the cells were lysed with 1% sodium dodecyl sulfate lysis buffer. The obtained cell lysate was transferred into scintillation vials containing scintillation fluid. Radioactivity was measured on a liquid scintillation counter (Packard 1900 TR Tri-Carb Liquid Scintillation Counter; Packard Instrument Company). Efficacy was normalized to 5-HT activity.
3.2.4 Calculation of bias factors […]
using 5-HT as the reference agonist.
RApathway = EC50, i = EC50, ref×Emax,i […]
Then, the obtained RA values were used to calculate the bias factor (β) for each pathway combination. […]
pathway 1 over pathway 2. Brown-Forsythe and Welch ANOVA analyses were applied to estimate the […]

h5-HT1A = target: T1, h5-HT1A (Homo sapiens, UniProt P08908); test: Radioligand binding, h5-HT1A receptor ([3H]8-OH-DPAT)
T1 construct: expressed in transfected cells; host or cells: HEK 293 cells (membrane preparation)
T1 sequence (P08908 1-422): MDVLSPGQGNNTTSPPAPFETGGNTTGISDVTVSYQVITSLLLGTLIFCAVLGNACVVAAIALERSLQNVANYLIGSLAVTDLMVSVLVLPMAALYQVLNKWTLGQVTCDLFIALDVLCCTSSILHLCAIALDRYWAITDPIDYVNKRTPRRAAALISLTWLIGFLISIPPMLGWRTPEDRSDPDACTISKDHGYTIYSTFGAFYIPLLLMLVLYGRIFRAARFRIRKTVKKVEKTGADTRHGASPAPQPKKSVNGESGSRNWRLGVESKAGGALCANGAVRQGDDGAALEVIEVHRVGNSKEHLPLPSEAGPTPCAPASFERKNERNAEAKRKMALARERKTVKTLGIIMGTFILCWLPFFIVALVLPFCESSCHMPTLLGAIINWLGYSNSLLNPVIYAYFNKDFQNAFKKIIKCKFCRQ

h5-HT2A, sequence (P28223 whole entry, looked up): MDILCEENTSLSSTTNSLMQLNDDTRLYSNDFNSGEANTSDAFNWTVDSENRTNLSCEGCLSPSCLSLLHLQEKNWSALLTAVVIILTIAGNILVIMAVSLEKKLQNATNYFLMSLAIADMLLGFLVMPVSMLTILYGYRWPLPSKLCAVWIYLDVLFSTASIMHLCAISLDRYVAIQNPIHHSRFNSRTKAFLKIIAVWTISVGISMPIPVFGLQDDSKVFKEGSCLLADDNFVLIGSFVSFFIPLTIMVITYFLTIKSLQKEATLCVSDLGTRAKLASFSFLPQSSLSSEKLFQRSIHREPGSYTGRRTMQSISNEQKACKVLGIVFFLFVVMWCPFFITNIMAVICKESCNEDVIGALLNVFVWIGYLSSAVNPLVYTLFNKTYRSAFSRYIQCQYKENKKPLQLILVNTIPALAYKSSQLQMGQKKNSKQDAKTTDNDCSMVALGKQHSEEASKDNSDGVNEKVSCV

SMILES	Emax (h5-HT2A) [%]	Bias factor β Gαi/o,12/13/Gαq (5-HT2A receptor)	Bias factor β Gαi/o,12/13/β-arrestin 2 (5-HT2A receptor)	Bias factor β β-arrestin 2/Gαq (5-HT2A receptor)	Ki (h5-HT1A) [µM]	Agonist type for Gαq signaling at the 5-HT2A receptor (h5-HT2A)	EC50 (h5-HT2A) [µM]	Ki (h5-HT1A; read-out: Ki h5-HT1A (95% CI), receptor binding, HEK 293 membranes) [µM]
COc1ccc(OC)c(CC(C)N)c1.Cl (stereo not drawn) [2,5-DMA, 2,5-Dimethoxyamphetamine hydrochloride]	99	0.37	0.29	0.09	6.02			
CCc1cc(OC)c(CC(C)N)cc1OC (stereo not drawn) [DOET, 4-ethyl-2,5-dimethoxyamphetamine]	93	0.16	0.07	0.08	5.76	high efficacy partial agonists	0.012	
CCCCCc1cc(OC)c(CC(C)N)cc1OC (stereo not drawn) [DOAM, 4-amyl-2,5-dimethoxyamphetamine]	83	-0.30	0.43	-0.73	8.42	high efficacy partial agonists	0.0081	
CCCCc1cc(OC)c(CC(C)N)cc1OC (stereo not drawn) [DOBU, 4-butyl-2,5-dimethoxyamphetamine]	90	-0.61	0.25	-0.86	13.5	high efficacy partial agonists	0.0028	
CCCc1cc(OC)c(CC(C)N)cc1OC.Cl (stereo not drawn) [DOPR, 4-propyl-2,5-dimethoxyamphetamine hydrochloride]	96	-0.53	0.11	-0.64	3.95		0.0019	
COc1cc(CC(C)N)c(OC)cc1C (stereo not drawn) [DOM, 4-methyl-2,5-dimethoxyamphetamine]	92	0.04	0.39	-0.35		high efficacy partial agonists	0.021	7.24
